# Results reported in patent US9649324B2, “Use of tylvalosin as antiviral agent” (ECO ANIMAL HEALTH LIMITED, priority 2006, dated 2017).
# How the values were obtained:
# endosomal pH = test: Acridine orange assay of endosomal pH (Example 13); type: cell-based
# Description: Acridine orange is a dye that causes cells to fluoresce green with the exception of acidic compartments (such as endosomes) that appear red—due to the protonation of the dye and quenching of the green fluorescence. A substance that raises the endosomal pH will prevent the appearance of the red fluorescence. The effect of Aivlosin® and other macrolide antibiotics on a the staining of endosomes by acridine orange in number of cells lines was determined (see FIG. 19). An area of cells grown on a glass coverslip is first selected using a DAPI stain. […] This selection procedure helps reduce any bias in the results. The green and red filters on the epifluorescence microscope were then used to examine about 20 cells. The number of red spots (endosome vesicles) in was determined. The average number of Acridine orange stained endosomes was counted.
# [1] = orally administered, in vivo (Okamoto et al., 1981); cited from earlier work
# pig white blood cells = test: Intracellular accumulation in pig white blood cells; type: in vitro ADME
# Description: Pig blood was collected in Heparin-coated BD vacutainers (6). 20 mL of blood and 30 mL of phosphate buffered saline (PBS) were mixed in a 50 mL conical centrifuge tube. This was repeated in order to obtain 3 such tubes. The mixtures were centrifuged for 10 min at 2050×g. The white blood cells, together with some red blood cells below, were harvested into a 50 mL conical centrifuge tube. PBS was added to about 50 mL. A 63% solution of Percoll was made as follows: 6.3 mL Percoll (Sigma), 1.0 mL 1.5 M NaCl, 2.7 mL H2O. 10 mL of 63% Percoll was added to each of two 50 mL conical centrifuge tubes. 25 mL of the resuspended white blood cells were carefully layered on top of the each of the Percoll solutions. A sharp interface was produced. The material was centrifuged at 3000×g for 10 min. […] The white blood cells were harvested in PBS (50 mL) and centrifuged at 500×g for 10 min. The cell pellet was resuspended in medium (Glasgow minimum essential medium containing penicillin and streptomycin). A viable cell count was made using trypan blue. The same method used for isolation of pig WBCs was used for the chicken WBCs, with the exception that heparin (100 I.U./mL) was prepared and mixed with an equal volume of chicken whole blood.
# Cells were incubated with 10 mg/mL of each antibiotic. All tubes were placed on a rotary mixing machine, at 37° C. Supernatant and cell samples were harvested at the times described in the figure legends. Duplicate samples were used for each antibiotic for each time point.
# All the supernatant and cell samples were transported frozen (at approximately −20° C.) to York Bioanalytical Solutions (York, England) for analysis. Briefly, 0.25 g of buffer (RPMI medium containing 10% FCS) was weighed into a polypropylene tube. A 50 μL volume of the appropriate working solution was added to the quality control (QC) samples. Methanol (50 μL) was added to each blank sample used for preparation of calibration standards, recovery samples and reagent blanks. A 2.5 mL volume of 0.1 M phosphate buffer was added to each sample, vortex mixed for approximately 1 min and then centrifuged at 3220×g for 10 min at 4° C.
# For the liquid-liquid clean-up phase, an aliquot (100 μL) of the supernatant was transferred to a polypropylene tube. The pH was adjusted to pH 8-8.5 by the addition of 0.1 M NaOH, and vortex mixed. Ethyl acetate (5 mL) was added and after capping, the whole mixture was shaken for 10 min and then centrifuged at 3220×g for 10 min at 4° C.
# Ammonium acetate (20 mM; pH native)—formic acid, 1000:3, v/v (100 μL) was added to each well in a 2 mL polypropylene collection plate. An aliquot of the ethyl acetate mixture (100 μL) was transferred to the polypropylene collection plate and evaporated under nitrogen (40° C.) until the ethyl acetate was fully evaporated whilst the ammonium acetate remained. Methanol (100 μL) was added to each well, excluding the calibration standards.
# To each well containing a calibration standard, 100 μL of the appropriate calibration working solution was added. Samples were then vortex mixed for at least 10 min and submitted for liquid chromatography with tandem mass spectrometric analysis. The method stated was applicable to the samples of media (and the calibration standards and quality control samples).
# For the cells, the sample tubes were weighed, and 100 μL of acetonitrile was added. The samples were vortex mixed for 10 sec, then centrifuged at 10285×g at 4° C. for 5 min. The sample was transferred to a polypropylene tube. The original sample tube was washed with 0.1 M phosphate buffer (1 mL). This was transferred to the polypropylene tube. A second wash of 1 mL was made, then a final wash of 0.5 mL. The polypropylene tube was now at the same stage as the end of the liquid extraction, but with the cells present rather than media. This was then taken through the sample preparation as described above. […]
# [2] = tested on: VR2332 (US strain of PRRSV); test: VR2332 (US strain of PRRSV) entry assay in MA104 cells (Example 10); settings: 4 h pretreatment, moi 10, overnight
# [3] = tested on: human Udorn strain of influenza; test: Influenza infection of MDCK cells, immunofluorescence (Example 4), strain Udorn; type: cell-based; settings: 1 μg/ml, 4 h pretreatment, moi 10, fixed 4 h post infection
# PRRSV strain, VR2385 = test: Efficacy of tylvalosin in feed for the control of PRRSV in challenged pigs (Example 14); type: in vivo, pig; settings: for Mean maximum respiratory score: score 0-6
# [4] = Group 1, 100 ppm in feed, Trial Day 17
# [5] = Group 1, 100 ppm in feed, Trial Day 28
# [6] = Group 2, 200 ppm in feed, Trial Day 17
# [7] = Group 2, 200 ppm in feed, Trial Day 28
# [8] = Group 3, 600 ppm in feed, Trial Day 17
# [9] = Group 3, 600 ppm in feed, Trial Day 28
smiles,measurement,setting,value
"CCC1OC(=O)CC(OC(C)=O)C(C)C(OC2OC(C)C(OC3CC(C)(O)C(OC(=O)CC(C)C)C(C)O3)C(N(C)C)C2O)C(CC=O)CC(C)C(=O)C=CC(C)=CC1COC1OC(C)C(O)C(OC)C1OC (centres unmarked) [tylvalosin, 3-O acetyl-4″-O-isovaleryltylosin]",effect on raising the pH in the endosomes,"endosomal pH; acridine orange stained endosomes, any cell line",raises the pH in endosomes
same,effect on endosomal pH,endosomal pH; epithelial cells,greater effects than tilmicosin
same,blood levels,[1],higher blood levels than tylosin
same,average intracellular concentration,pig white blood cells; 10 min,57.4 μg/mg cells
same,average intracellular:extracellular ratio (IC:EC),pig white blood cells; 10 min,8.68
same,average intracellular:extracellular ratio (IC:EC),"pig white blood cells; 10 min, listed as Tylvalosin",9
same,intracellular concentration,pig white blood cells; 20 min,61.45 μg/mg cells
same,inhibition of VR2332 infection,[2],sensitive
same,inhibition of infection of MDCK cells,[3],76%
same,severity of macroscopic pneumonia,"PRRSV strain, VR2385; 100, 200, 600 ppm in feed versus non-treated controls",No differences
same,Mean average rectal temperature,"PRRSV strain, VR2385; Group 1, 100 ppm in feed",103.6 ± 0.1
same,Mean maximum rectal temperature,"PRRSV strain, VR2385; Group 1, 100 ppm in feed",104.5 ± 0.2 A
same,Mean microscopic PRRSV lung lesion score,"PRRSV strain, VR2385; Group 1, 100 ppm in feed, Necropsy 1 (Trial Day 17, 10 days post infection)",0.2 ± 0.2 A
same,Mean microscopic PRRSV lung lesion score,"PRRSV strain, VR2385; Group 1, 100 ppm in feed, Necropsy 2 (Trial Day 28, 21 days post infection)",2.1 ± 0.4
same,Average daily gain,"PRRSV strain, VR2385; Group 1, 100 ppm in feed, Trial Day 7",1.57 ± .09 lbs
same,Mean real-time RT-PCR (PRRSV RNA copy numbers in serum),"PRRSV strain, VR2385; Group 1, 100 ppm in feed, Trial Day 10","15,289.88 B, C"
same,Average daily gain,"PRRSV strain, VR2385; Group 1, 100 ppm in feed, Trial Day 14",1.5 ± .05 lbs
same,Average daily gain,"PRRSV strain, VR2385; [4]",1.59 ± .05 A lbs
same,Mean real-time RT-PCR (PRRSV RNA copy numbers in serum),"PRRSV strain, VR2385; [4]","95,315.72"
same,Mean real-time RT-PCR (PRRSV RNA copy numbers in serum),"PRRSV strain, VR2385; Group 1, 100 ppm in feed, Trial Day 21","36,451.13"
same,Average daily gain,"PRRSV strain, VR2385; [5]",1.42 ± .05 lbs
same,Mean real-time RT-PCR (PRRSV RNA copy numbers in serum),"PRRSV strain, VR2385; [5]","5,301.63"
same,Mean maximum respiratory score,"PRRSV strain, VR2385; Group 1, 100 ppm in feed",0.5 ± 0.1 A*
same,Mean average rectal temperature,"PRRSV strain, VR2385; Group 2, 200 ppm in feed",103.7 ± 0.1
same,Mean maximum rectal temperature,"PRRSV strain, VR2385; Group 2, 200 ppm in feed",104.7 ± 0.2 A
same,Mean microscopic PRRSV lung lesion score,"PRRSV strain, VR2385; Group 2, 200 ppm in feed, Necropsy 1 (Trial Day 17, 10 days post infection)",2.0 ± 0.3 B
same,Mean microscopic PRRSV lung lesion score,"PRRSV strain, VR2385; Group 2, 200 ppm in feed, Necropsy 2 (Trial Day 28, 21 days post infection)",1.9 ± 0.3
same,Average daily gain,"PRRSV strain, VR2385; Group 2, 200 ppm in feed, Trial Day 7",1.52 ± .10 lbs
same,Mean real-time RT-PCR (PRRSV RNA copy numbers in serum),"PRRSV strain, VR2385; Group 2, 200 ppm in feed, Trial Day 10","19,336.8 C"
same,Average daily gain,"PRRSV strain, VR2385; Group 2, 200 ppm in feed, Trial Day 14",1.45 ± .06 lbs
same,Average daily gain,"PRRSV strain, VR2385; [6]","1.59 ± .07 A, B lbs"
same,Mean real-time RT-PCR (PRRSV RNA copy numbers in serum),"PRRSV strain, VR2385; [6]","78,804.81"
same,Mean real-time RT-PCR (PRRSV RNA copy numbers in serum),"PRRSV strain, VR2385; Group 2, 200 ppm in feed, Trial Day 21","18,724.88"
same,Average daily gain,"PRRSV strain, VR2385; [7]",1.53 ± .07 lbs
same,Mean real-time RT-PCR (PRRSV RNA copy numbers in serum),"PRRSV strain, VR2385; [7]",892.36
same,Mean maximum respiratory score,"PRRSV strain, VR2385; Group 2, 200 ppm in feed",0.6 ± 0.2 A
same,Mean average rectal temperature,"PRRSV strain, VR2385; Group 3, 600 ppm in feed",103.8 ± 0.1
same,Mean maximum rectal temperature,"PRRSV strain, VR2385; Group 3, 600 ppm in feed",105.8 ± 0.3 B
same,Mean microscopic PRRSV lung lesion score,"PRRSV strain, VR2385; Group 3, 600 ppm in feed, Necropsy 1 (Trial Day 17, 10 days post infection)",2.0 ± 0.3 B
same,Mean microscopic PRRSV lung lesion score,"PRRSV strain, VR2385; Group 3, 600 ppm in feed, Necropsy 2 (Trial Day 28, 21 days post infection)",1.5 ± 0.3
same,Average daily gain,"PRRSV strain, VR2385; Group 3, 600 ppm in feed, Trial Day 7",1.83 + .16 lbs
same,Mean real-time RT-PCR (PRRSV RNA copy numbers in serum),"PRRSV strain, VR2385; Group 3, 600 ppm in feed, Trial Day 10","54,487.19 A, B"
same,Average daily gain,"PRRSV strain, VR2385; Group 3, 600 ppm in feed, Trial Day 14",1.47 ± .06 lbs
same,Average daily gain,"PRRSV strain, VR2385; [8]","1.44 ± .04 A, B lbs"
same,Mean real-time RT-PCR (PRRSV RNA copy numbers in serum),"PRRSV strain, VR2385; [8]","146,655.4"
same,Mean real-time RT-PCR (PRRSV RNA copy numbers in serum),"PRRSV strain, VR2385; Group 3, 600 ppm in feed, Trial Day 21","30,260.69"
same,Average daily gain,"PRRSV strain, VR2385; [9]",1.47 ± .06 lbs
same,Mean real-time RT-PCR (PRRSV RNA copy numbers in serum),"PRRSV strain, VR2385; [9]","1,292.31"
same,Mean maximum respiratory score,"PRRSV strain, VR2385; Group 3, 600 ppm in feed",1.8 ± 0.3 B
same,clinical disease and viremia associated with PRRSV infection,"PRRSV strain, VR2385; lower doses (in feed)",appears to reduce clinical disease and viremia
